# US6362175B1, “Porphyrin compounds for imaging tissue oxygen” (The Trustees of the University of Pennsylvania, priority 1991, dated 2002)
# Assays:
# Format in all cases: physicochemical
# [1] = Absorption spectra (Soret and Q bands)
# Experimental: (§1) Absorption spectra were recorded on a Beckman DU-64 spectrophotometer. Emission spectra (fluorescence and phosphorescence) were recorded using an AMINCO SPF-500C spectrofluorimeter. ^1H NMR spectra were recorded using a Brucker 300 MHz instrument. Phosphorescence lifetime measurements were performed using a light guide phosphorimeter designed by applicants. HPLC analysis of reaction mixtures was carried out on a SpectraPhysics 8800 gradient system, using an Adsorbosphere HS C4 100×4.6 mm column and methanol:water mixture as a mobile phase.
# [2] = Phosphorescence lifetime at zero oxygen, light guide phosphorimeter
# From the text: (§2) Solvents for phosphorescence measurements were degassed by three freeze-pump-thaw cycles and stored in a vacuum over sodium benzophenone ketyl (THF) or 4 Å molecular sieves (DMF). The solvents were vacuum transferred immediately prior to the phosphorescence measurements and samples were sealed under high vacuum.
# (§3) An enzymatic system (glucose-glucose oxidase-catalase) was used for deoxygenation of aqueous solutions and N2-O2 gas mixtures containing either 2.89% of oxygen or 20% oxygen (air) were used for calibration and measurements of the quenching constants.
# as §1
# [3] = Quenching of phosphorescence by oxygen (Stern-Volmer quenching constant)
# From the text: Phosphorescence of certain chemical compounds is quenched by oxygen according to the Stern-Volmer relationship which is stated as follows:
# where T0 and T are the phosphorescence lifetimes in the absence of oxygen, PO2 is the oxygen pressure for a lifetime of T, and kQ is the quenching constant. The constant kQ is related to the frequency of collisions between the excited triplet state molecule and molecular oxygen and the probability of energy transfer occurring when these molecules collide.
# as §3, §1
# [4] = Phosphorescence spectra of deoxygenated samples; conditions: solvent THF, 25 °C
# Experimental: as §2, §1
# Phosphorescence of a series of metal-TBP compounds was detected using constant irradiation of samples with light wavelengths at their Q and Soret bands. To observe the phosphorescence phenomena and to record phosphorescence spectra, the samples were intensively deoxygenated. Accordingly, highly degassed dimethylformamide (DMF) or THF were used as solvents. The phosphorescence spectra of LuTPhTBP and PdTPhTBP are depicted in FIGS. 5 and 6, respectively.
# [5] = solvent DMF, TBP/TPhTBP compounds
# [6] = solvent DMF, TPhTNP compounds, average position of split Soret band
# [7] = Phy. sol. (aqueous, pH 7.0), 38 °C
# [8] = Phy. sol. adjusted to pH 7.4, 38 °C
molecule,measurement,setting,value
[OH][La]1[n]2c3c4ccccc4c2C(c2ccccc2)=C2N=C(C(c4ccccc4)=c4c5ccccc5c([n]41)=C(c1ccccc1)C1=NC(=C3c3ccccc3)c3ccccc31)c1ccccc12 [La(OH)TPhTBP],Q-band,[1]; solvent DMF,633 nm
same,Soret band,[1]; [5],432 nm
[OH][La]1[n]2c3c4cc5ccccc5cc4c2C(c2ccccc2)=C2N=C(C(c4ccccc4)=c4c5cc6ccccc6cc5c([n]41)=C(c1ccccc1)C1=NC(=C3c3ccccc3)c3cc4ccccc4cc31)c1cc3ccccc3cc12 [La(OH)TPhTNP],Q-band,[1]; solvent DMF,708 nm
same,Soret band,[1]; [6],440 nm
"[OH][Lu]1[n]2c3c4ccccc4c2C(c2ccccc2)=C2N=C(C(c4ccccc4)=c4c5ccccc5c([n]41)=C(c1ccccc1)C1=NC(=C3c3ccccc3)c3ccccc31)c1ccccc12 [Lu(OH)TPhTBP, lutetium (hydroxy) meso-tetraphenyltetrabenzoporphyrin]",Q-band,[1]; solvent Acetone,628 nm
same,Soret band,[1]; solvent Acetone,423 nm
[OH][Lu]1[n]2c3c4cc5ccccc5cc4c2C(c2ccccc2)=C2N=C(C(c4ccccc4)=c4c5cc6ccccc6cc5c([n]41)=C(c1ccccc1)C1=NC(=C3c3ccccc3)c3cc4ccccc4cc31)c1cc3ccccc3cc12 [Lu(OH)TPhTNP],Q-band,[1]; solvent DMF,709 nm
same,Soret band,[1]; [6],440 nm
c1ccc(C2=C3N=C(C(c4ccccc4)=c4c5ccccc5c5[n]4[Pb][n]4c2c2ccccc2c4C(c2ccccc2)=C2N=C(C=5c4ccccc4)c4ccccc42)c2ccccc23)cc1 [PbTPhTBP],Q-band,[1]; solvent Acetone,663 nm
same,Soret band,[1]; solvent Acetone,487 nm
O=S(=O)(N[C@H]1C(O)O[C@H](CO)[C@@H](O)[C@@H]1O)c1ccc(C2=C3N=C(C(c4ccc(S(=O)(=O)N[C@H]5C(O)O[C@H](CO)[C@@H](O)[C@@H]5O)cc4)=c4c5ccccc5c5[n]4[Pd][n]4c2c2ccccc2c4C(c2ccc(S(=O)(=O)N[C@H]4C(O)O[C@H](CO)[C@@H](O)[C@@H]4O)cc2)=C2N=C(C=5c4ccc(S(=O)(=O)N[C@H]5C(O)O[C@H](CO)[C@@H](O)[C@@H]5O)cc4)c4ccccc42)c2ccccc23)cc1 (stereo partly drawn) [PdTPhTBP (glucosamine)4],Phosphorescent lifetime at zero-oxygen concentration,[2]; [7],431 μs
same,Quenching constant at a temperature of 38° C.,[3]; [7],194 Torr^−1s^−1
same,Q-band,[1]; solvent water,615 nm
same,Soret band,[1]; solvent water,409 nm
O=C(O)CNS(=O)(=O)c1ccc(C2=C3N=C(C(c4ccc(S(=O)(=O)NCC(=O)O)cc4)=c4c5ccccc5c5[n]4[Pd][n]4c2c2ccccc2c4C(c2ccc(S(=O)(=O)NCC(=O)O)cc2)=C2N=C(C=5c4ccc(S(=O)(=O)NCC(=O)O)cc4)c4ccccc42)c2ccccc23)cc1 [PdTPhTBP (glyc)4],Phosphorescent lifetime at zero-oxygen concentration,[2]; [7],408 μs
same,Quenching constant at a temperature of 38° C.,[3]; [7],186 Torr^−1s^−1
same,Q-band,[1]; solvent water,620 nm
same,Soret band,[1]; solvent water,421 nm
O=C(O)Cc1ccc(NS(=O)(=O)c2ccc(C3=C4N=C(C(c5ccc(S(=O)(=O)Nc6ccc(CC(=O)O)cc6)cc5)=c5c6ccccc6c6[n]5[Pd][n]5c3c3ccccc3c5C(c3ccc(S(=O)(=O)Nc5ccc(CC(=O)O)cc5)cc3)=C3N=C(C=6c5ccc(S(=O)(=O)Nc6ccc(CC(=O)O)cc6)cc5)c5ccccc53)c3ccccc34)cc2)cc1 [PdTPhTBP (sulfonamide)4],Phosphorescent lifetime at zero-oxygen concentration,[2]; [8],377 μs
same,Quenching constant at a temperature of 38° C.,[3]; [8],185 Torr^−1s^−1
same,Q-band,[1]; solvent water,630 nm
same,Soret band,[1]; solvent water,415 nm
"c1ccc(C2=C3N=C(C(c4ccccc4)=c4c5ccccc5c5[n]4[Pd][n]4c2c2ccccc2c4C(c2ccccc2)=C2N=C(C=5c4ccccc4)c4ccccc42)c2ccccc23)cc1 [PdTPhTBP, palladium meso-tetraphenyltetrabenzoporphyrin]",Phosphorescent lifetime at zero-oxygen concentration,"[2]; solvent THF, 25 °C",127 μs
same,Q-band,[1]; solvent CHCl3,610 nm
same,Soret band,[1]; solvent CHCl3,420 nm
same,Phosphorescence maximum,[4],784 nm
c1ccc(C2=C3N=C(C(c4ccccc4)=c4c5cc6ccccc6cc5c5[n]4[Pd][n]4c2c2cc6ccccc6cc2c4C(c2ccccc2)=C2N=C(C=5c4ccccc4)c4cc5ccccc5cc42)c2cc4ccccc4cc23)cc1 [PdTPhTNP],Phosphorescent lifetime at zero-oxygen concentration,"[2]; solvent THF, 25 °C",165 μs
same,Q-band,[1]; solvent DMF,694 nm
same,Soret band,[1]; [6],415 nm
c1ccc(C2=C3N=C(C(c4ccccc4)=c4c5ccccc5c5[n]4[Pt][n]4c2c2ccccc2c4C(c2ccccc2)=C2N=C(C=5c4ccccc4)c4ccccc42)c2ccccc23)cc1 [PtTPhTBP],Q-band,[1]; solvent DMF,630 nm
same,Soret band,[1]; [5],437 nm
c1ccc(C2=C3N=C(C(c4ccccc4)=c4c5cc6ccccc6cc5c5[n]4[Pt][n]4c2c2cc6ccccc6cc2c4C(c2ccccc2)=C2N=C(C=5c4ccccc4)c4cc5ccccc5cc42)c2cc4ccccc4cc23)cc1 [PtTPhTNP],Q-band,[1]; solvent DMF,700 nm
same,Soret band,[1]; [6],425 nm
c1ccc(C2=C3N=C(C(c4ccccc4)=c4c5ccccc5c5[n]4[Sn][n]4c2c2ccccc2c4C(c2ccccc2)=C2N=C(C=5c4ccccc4)c4ccccc42)c2ccccc23)cc1 [SnTPhTBP],Q-band,[1]; solvent Acetone,642 nm
same,Soret band,[1]; solvent Acetone,438 nm
[OH][Y]1[n]2c3c4ccccc4c2C(c2ccccc2)=C2N=C(C(c4ccccc4)=c4c5ccccc5c([n]41)=C(c1ccccc1)C1=NC(=C3c3ccccc3)c3ccccc31)c1ccccc12 [Y(OH)TPhTBP],Q-band,[1]; solvent Acetone,630 nm
same,Soret band,[1]; solvent Acetone,431 nm
"[Zn].c1ccc2c(c1)-c1cc3[nH]c(cc4nc(cc5[nH]c(cc-2n1)c1ccccc51)-c1ccccc1-4)c1ccccc31 [ZnTBP (Pyridine)2, zinc tetrabenzoporphyrin]",Q-band,[1]; solvent DMF,624 nm
same,Soret band,[1]; [5],425 nm
c1ccc(C2=C3N=C(C(c4ccccc4)=c4c5ccccc5c5[n]4[Zn][n]4c2c2ccccc2c4C(c2ccccc2)=C2N=C(C=5c4ccccc4)c4ccccc42)c2ccccc23)cc1.c1ccncc1.c1ccncc1 [ZnTPhTBP (Pyridine)2],Q-band,[1]; solvent Acetone,625 nm
same,Soret band,[1]; solvent Acetone,428 nm
lutetium (Lu) tetraphenyltetranaphthoporphyrin [LuTPhTNP],Phosphorescent lifetime at zero-oxygen concentration,"[2]; solvent DMF, 25 °C",172 μs
